# Assay results published in patent publication US11208400B2, “Substituted 6-(1H-pyrazol-1-yl)pyrimidin-4-amine derivatives and uses thereof” (Bayer Aktiengesellschaft, priority 2016, dated 2021).
# Target: T1, human Npt2a (Homo sapiens, UniProt Q06495)
# T1 construct: expressed in transfected cells
# T1 sequence (Q06495 1-639): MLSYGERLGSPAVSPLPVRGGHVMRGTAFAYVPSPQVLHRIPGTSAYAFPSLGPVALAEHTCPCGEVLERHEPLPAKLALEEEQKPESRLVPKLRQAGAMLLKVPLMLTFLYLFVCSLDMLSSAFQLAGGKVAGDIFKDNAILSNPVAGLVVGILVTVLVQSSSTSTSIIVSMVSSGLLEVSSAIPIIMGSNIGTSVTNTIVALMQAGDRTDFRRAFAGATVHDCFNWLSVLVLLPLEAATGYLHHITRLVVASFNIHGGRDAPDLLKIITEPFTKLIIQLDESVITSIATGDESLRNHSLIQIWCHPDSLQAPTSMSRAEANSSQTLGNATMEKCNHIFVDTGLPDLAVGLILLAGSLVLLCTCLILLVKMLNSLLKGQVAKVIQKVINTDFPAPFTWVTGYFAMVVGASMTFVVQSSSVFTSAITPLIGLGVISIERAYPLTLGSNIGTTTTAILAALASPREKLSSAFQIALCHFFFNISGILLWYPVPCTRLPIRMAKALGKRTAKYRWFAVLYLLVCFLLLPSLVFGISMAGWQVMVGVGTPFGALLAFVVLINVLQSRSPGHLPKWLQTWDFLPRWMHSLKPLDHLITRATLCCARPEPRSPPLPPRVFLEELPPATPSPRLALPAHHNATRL
# Assay: Npt2a activity cell based assay, membrane potential dye, CHO T-REx hNpt2a cells
# Conditions: doxycycline-induced, depolarization by sodium phosphate influx, average or median values if tested more than once
# Procedure, shortened: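 Doxycycline-induced (0.5 μg/mL, 24 h) CHO T-REx cells were loaded with membrane potential dye in sodium-free NHE buffer (pH 7.4) and exposed to compound (50 μM–1 nM, 5 min, room temperature).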
row,SMILES,IC50 [nM]
1,"Cc1cc(C(F)F)n(-c2cc(Nc3nn(C)c(-c4ccc(C(F)(F)F)nc4)c3C)ncn2)n1 [Example 552, 6-[5-(difluoromethyl)-3-methyl-1H-pyrazol-1-yl]-N-{1,4-dimethyl-5-[6-(trifluoromethyl)pyridin-3-yl]-1H-pyrazol-3-yl}pyrimidin-4-amine]",15
2,"Cc1nn(-c2cc(Nc3nn(C)c(-c4ccc(C(F)(F)F)nc4)c3C)ncn2)c(C)c1Cl [Example 553, 6-(4-chloro-3,5-dimethyl-1H-pyrazol-1-yl)-N-{1,4-dimethyl-5-[6-(trifluoromethyl)pyridin-3-yl]-1H-pyrazol-3-yl}pyrimidin-4-amine]",7.2
3,"COCCn1nc(-c2ccc(C#N)cc2)c(C)c1Nc1cc(-n2nc(C)cc2C(F)F)ncn1 [Example 554, 4-[5-({6-[5-(difluoromethyl)-3-methyl-1H-pyrazol-1-yl]pyrimidin-4-yl}amino)-1-(2-methoxyethyl)-4-methyl-1H-pyrazol-3-yl]benzonitrile]",1.9
4,"COCCn1nc(-c2ccc(C#N)cc2)c(C)c1Nc1cc(-n2nc(C)cc2C)ncn1 [Example 555, 4-[5-{[6-(3,5-dimethyl-1H-pyrazol-1-yl)pyrimidin-4-yl]amino}-1-(2-methoxyethyl)-4-methyl-1H-pyrazol-3-yl]benzonitrile]",1.6
5,"COC(=O)Nc1c(C)nn(-c2cc(Nc3c(C)c(-c4ccc(F)cc4)nn3CC3CC3)ncn2)c1C [Example 556, methyl [1-(6-{[1-(cyclopropylmethyl)-3-(4-fluorophenyl)-4-methyl-1H-pyrazol-5-yl]amino}pyrimidin-4-yl)-3,5-dimethyl-1H-pyrazol-4-yl]carbamate]",810
6,"COCCn1nc(-c2ccc(F)cn2)c(C)c1Nc1cc(-n2nc(C)c(C(=O)N(C)C)c2C)ncn1 [Example 557, 1-(6-{[3-(5-fluoropyridin-2-yl)-1-(2-methoxyethyl)-4-methyl-1H-pyrazol-5-yl]amino}pyrimidin-4-yl)-N,N,3,5-tetramethyl-1H-pyrazole-4-carboxamide]",1000
7,"COCCn1nc(-c2ccc(C(F)F)cc2)c(C)c1Nc1cc(-n2nc(C)c(C(=O)N(C)C)c2C)ncn1 [Example 558, 1-[6-({3-[4-(difluoromethyl)phenyl]-1-(2-methoxyethyl)-4-methyl-1H-pyrazol-5-yl}amino)pyrimidin-4-yl]-N,N,3,5-tetramethyl-1H-pyrazole-4-carboxamide]",80
8,"Cc1cc(C)n(-c2cc(Nc3nn(C)c(-c4ccc(C(F)(F)F)nc4)c3C)ncn2)n1 [Example 559, 6-(3,5-dimethyl-1H-pyrazol-1-yl)-N-{1,4-dimethyl-5-[6-(trifluoromethyl)pyridin-3-yl]-1H-pyrazol-3-yl}pyrimidin-4-amine]",110
